Patent US12371454B2, “Cyclic peptide compound having Kras inhibitory action” (priority 2019, dated 2025)
Starred links: 1 amine or outer side, 2 acyl side, 3 side chain; linkers in the order of their positions; H or OH if unused. Positions of bridges follow the written chain, without caps; N, C: chain ends. Non-standard residues stand in square brackets, D forms with d. Residues, ends and D or L forms follow the SMILES beside them. *: point of attachment. hPhe(3,5-F2-4-CF3) = N[C@@H](CCc1cc(F)c(C(F)(F)F)c(F)c1)C(=O)O; hPhe(3-Cl-4-CF3) = N[C@@H](CCc1ccc(C(F)(F)F)c(Cl)c1)C(=O)O; NMePhe(4-CF3) = CN[C@@H](Cc1ccc(C(F)(F)F)cc1)C(=O)O; Thiomorpholino(1,1-dioxo) = O=S1(=O)CCN(*)CC1; X50 = O=C([C@H](Cc1cc(F)cc(Br)c1)N[*:1])[*:2]; NEtPhe(4-Me) = CCN[C@@H](Cc1ccc(C)cc1)C(=O)O; NMeAbu(4,4,4-F3) = CN[C@@H](CC(F)(F)F)C(=O)O; NMePhe(4-Cl) = CN[C@@H](Cc1ccc(Cl)cc1)C(=O)O; NMePhe(4-Me) = CN[C@@H](Cc1ccc(C)cc1)C(=O)O; X59 = O=C([C@H](Cc1cc(I)ccc1Cl)N[*:1])[*:2]; X42 = Cc1ccc(I)cc1C[C@H](N[*:1])C(=O)[*:2]; NMedβ3hAla = C[C@H](CC(=O)[*:2])N(C)[*:1]; NMeGly(cPent) = CN[C@H](C(=O)O)C1CCCC1; Phe(3-I) = N[C@@H](Cc1cccc(I)c1)C(=O)O; Pro(4,4-F2) = O=C(O)[C@@H]1CC(F)(F)CN1; NMeGly(cBu) = CN[C@H](C(=O)O)C1CCC1; NMeY = CN[C@@H](Cc1ccc(O)cc1)C(=O)O; NMeCha = CN[C@@H](CC1CCCCC1)C(=O)O; NMeChg = CN[C@H](C(=O)O)C1CCCCC1; NMeD = CN[C@@H](CC(=O)O)C(=O)O; NMeL = CN[C@@H](CC(C)C)C(=O)O; Chg = N[C@H](C(=O)O)C1CCCCC1; NMeV = CN[C@H](C(=O)O)C(C)C; NMeAbu = CC[C@H](NC)C(=O)O; Morpholide = C1CN(*)CCO1; NMeA = CN[C@@H](C)C(=O)O; NMeAib = CNC(C)(C)C(=O)O; Nle = CCCC[C@H](N)C(=O)O; Piperidide = C1CCN(*)CC1; Pra = C#CC[C@H](N)C(=O)O; Pyrrolidide = C1CCN(*)C1; dNMeA = CN[C@H](C)C(=O)O; Ac5c = NC1(C(=O)O)CCCC1; Aze = O=C(O)[C@@H]1CCN1; Sar = CNCC(=O)O

These compounds were tested against T1, Kras and SOS1 (biotin-tagged human Kras loaded with GDP, His-tagged human SOS1) (Homo sapiens, UniProt P01116, G12D) (assay: Protein-protein interaction inhibition between Kras and SOS1 (KrasGl2D-SOS PPI) using AlphaScreen). Details: AlphaScreen; biotin-tagged human Kras loaded with GDP, His-tagged human SOS1; read-out: KRAS G12D-SOS PPI IC50.
T1 construct: made in house; host or cells: E. coli (stated for Kras only)
Type: binding
Method in brief: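 Donor beads (nickel) hold His-SOS1; acceptor beads (streptavidin) hold biotin-Kras bound to GDP. Signal measured at 520-620 nm following 680 nm excitation.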

T1 sequence (P01116 1-188 isoform P01116-2 G12D): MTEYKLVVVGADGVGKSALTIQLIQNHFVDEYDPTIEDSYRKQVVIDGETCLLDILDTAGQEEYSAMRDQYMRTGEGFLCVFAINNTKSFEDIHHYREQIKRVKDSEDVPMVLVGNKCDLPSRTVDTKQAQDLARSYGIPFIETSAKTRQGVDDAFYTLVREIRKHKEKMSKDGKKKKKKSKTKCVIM

Row | Compound | IC50 [µM]
1 | CC[C@H](C)[C@@H]1NC(=O)[C@H](CC(C)C)N(C)C(=O)C[C@@H](C(=O)N2CCS(=O)(=O)CC2)NC(=O)[C@H](C(C)C)N(C)C(=O)C2(CCCC2)NC(=O)[C@@H]2CCCN2C(=O)[C@H](CCc2ccc(C(F)(F)F)c(Cl)c2)NC(=O)CN(C)C(=O)[C@H](CC2CCCCC2)N(C)C(=O)[C@@H]2CCN2C(=O)[C@H](C)N(C)C1=O [Compound 1349] ([NMeL]I[NMeA][Aze][NMeCha][Sar][hPhe(3-Cl-4-CF3)]P[Ac5c][NMeV]D-{Thiomorpholino(1,1-dioxo)}; lactam N-11) | 0.15
2 | C#CC[C@@H]1NC(=O)[C@H](Cc2cccc(I)c2)NC(=O)CN(C)C(=O)[C@H](Cc2ccc(OC)cc2)N(C)C(=O)[C@@H]2CCN2C(=O)[C@H](C)N(C)C(=O)[C@H]([C@@H](C)CC)NC(=O)[C@H](CC(C)C)N(C)C(=O)C[C@@H](C(=O)N2CCCCC2)N(C)C(=O)[C@H](CC(C)C)NC(=O)C(C)(C)N(C)C1=O [Compound 1350] ([NMeL]I[NMeA][Aze][NMeY](Me)[Sar][Phe(3-I)][Pra][NMeAib]L[NMeD]-Piperidide; lactam N-11) | 0.017
3 | CCCC[C@@H]1NC(=O)[C@H](Cc2cc(I)ccc2Cl)NC(=O)CN(C)C(=O)[C@H](Cc2ccc(Cl)cc2)N(C)C(=O)CN(C)C(=O)CN(C)C(=O)[C@H]([C@@H](C)CC)NC(=O)[C@H](CC(C)C)N(C)C(=O)C[C@@H](C(=O)N2CCCCC2)N(C)C(=O)[C@H](CC(C)C)NC(=O)C(C)(C)N(C)C1=O [Compound 1352] ([NMeL]I[Sar][Sar][NMePhe(4-Cl)][Sar][X59][Nle][NMeAib]L[NMeD]-Piperidide; lactam N-11) | 0.11
4 | CC[C@H](C)[C@@H]1NC(=O)[C@H](CC(C)C)N(C)C(=O)C[C@@H](C(=O)N2CCCCC2)N(C)C(=O)[C@H](C2CCCCC2)NC(=O)C2(CCCC2)NC(=O)[C@@H]2CCCN2C(=O)[C@H](CCc2ccc(C(F)(F)F)c(Cl)c2)NC(=O)CN(C)C(=O)[C@H](CC2CCCCC2)N(C)C(=O)CN(C)C(=O)CN(C)C1=O [Compound 1354] ([NMeL]I[Sar][Sar][NMeCha][Sar][hPhe(3-Cl-4-CF3)]P[Ac5c][Chg][NMeD]-Piperidide; lactam N-11) | 0.0077
5 | CC[C@H](C)[C@@H]1NC(=O)[C@H](CC(F)(F)F)N(C)C(=O)C[C@@H](C(=O)N2CCCC2)N(C)C(=O)[C@H](C2CCCCC2)N(C)C(=O)C2(CCCC2)NC(=O)[C@@H]2CC(F)(F)CN2C(=O)[C@H](CCc2ccc(C(F)(F)F)c(Cl)c2)NC(=O)CN(C)C(=O)[C@H](CC2CCCCC2)N(C)C(=O)CN(C)C(=O)CN(C)C1=O [Compound 1357] ([NMeAbu(4,4,4-F3)]I[Sar][Sar][NMeCha][Sar][hPhe(3-Cl-4-CF3)][Pro(4,4-F2)][Ac5c][NMeChg][NMeD]-Pyrrolidide; lactam N-11) | 0.00052
6 | CCCC[C@@H]1NC(=O)[C@H](Cc2cc(I)ccc2C)NC(=O)CN(C)C(=O)[C@H](Cc2ccc(OC)cc2)N(C)C(=O)[C@@H]2CCN2C(=O)[C@H](C)N(C)C(=O)[C@H]([C@@H](C)CC)NC(=O)[C@H](CC)N(C)C(=O)C[C@@H](C(=O)N2CCCCC2)N(C)C(=O)[C@H](CC(C)C)NC(=O)C(C)(C)N(C)C1=O [Compound 1358] ([NMeAbu]I[NMeA][Aze][NMeY](Me)[Sar][X42][Nle][NMeAib]L[NMeD]-Piperidide; lactam N-11) | 0.019
7 | C#CC[C@@H]1NC(=O)[C@H](Cc2cccc(I)c2)NC(=O)CN(C)C(=O)[C@H](Cc2ccc(C(F)(F)F)cc2)N(C)C(=O)CN(C)C(=O)CN(C)C(=O)[C@H]([C@@H](C)CC)NC(=O)[C@H](CC(C)C)N(C)C(=O)C[C@@H](C(=O)N2CCCCC2)N(C)C(=O)[C@H](CC(C)C)NC(=O)C(C)(C)N(C)C1=O [Compound 1361] ([NMeL]I[Sar][Sar][NMePhe(4-CF3)][Sar][Phe(3-I)][Pra][NMeAib]L[NMeD]-Piperidide; lactam N-11) | 0.024
8 | CC[C@H](C)[C@@H]1NC(=O)[C@H](C2CCC2)N(C)C(=O)C[C@@H](C(=O)N2CCCC2)N(C)C(=O)[C@H](C2CCCCC2)N(C)C(=O)C2(CCCC2)NC(=O)[C@@H]2CC(F)(F)CN2C(=O)[C@H](CCc2ccc(C(F)(F)F)c(Cl)c2)NC(=O)CN(C)C(=O)[C@H](CC2CCCCC2)N(C)C(=O)CN(C)C(=O)CN(C)C1=O [Compound 1363] ([NMeGly(cBu)]I[Sar][Sar][NMeCha][Sar][hPhe(3-Cl-4-CF3)][Pro(4,4-F2)][Ac5c][NMeChg][NMeD]-Pyrrolidide; lactam N-11) | 0.00057
9 | CC[C@H](C)[C@@H]1NC(=O)[C@H](CC(C)C)N(C)C(=O)C[C@@H](C(=O)N2CCOCC2)N(C)C(=O)[C@H](C2CCCC2)N(C)C(=O)C2(CCCC2)NC(=O)[C@@H]2CCCN2C(=O)[C@H](CCc2cc(F)c(C(F)(F)F)c(F)c2)NC(=O)CN(C)C(=O)[C@H](Cc2ccc(C)cc2)N(CC)C(=O)[C@@H]2CCN2C(=O)[C@H](C)N(C)C1=O [Compound 1368] ([NMeL]I[NMeA][Aze][NEtPhe(4-Me)][Sar][hPhe(3,5-F2-4-CF3)]P[Ac5c][NMeGly(cPent)][NMeD]-Morpholide; lactam N-11) | 0.00067
10 | CCCC[C@@H]1NC(=O)[C@H](Cc2cc(F)cc(Br)c2)NC(=O)CN(C)C(=O)[C@H](Cc2ccc(OC)cc2)N(C)C(=O)[C@@H]2CCN2C(=O)[C@H](C)N(C)C(=O)[C@H]([C@@H](C)CC)NC(=O)[C@H](CC)N(C)C(=O)C[C@@H](C(=O)N2CCCCC2)N(C)C(=O)[C@H](CC(C)C)NC(=O)C(C)(C)N(C)C1=O [Compound 1372] ([NMeAbu]I[NMeA][Aze][NMeY](Me)[Sar][X50][Nle][NMeAib]L[NMeD]-Piperidide; lactam N-11) | 0.017
11 | CC[C@H](C)[C@@H]1NC(=O)[C@H](C)N(C)C(=O)C[C@@H](C)N(C)C(=O)[C@H](CC(C)C)NC(=O)C(C)(C)N(C)C(=O)[C@H](CC(C)C)NC(=O)[C@H](CCc2ccc(C(F)(F)F)c(Cl)c2)NC(=O)CN(C)C(=O)[C@H](Cc2ccc(C)cc2)N(C)C(=O)[C@@H]2CCN2C(=O)CN(C)C1=O [Compound 1377] (cyclo([Aze][NMePhe(4-Me)][Sar][hPhe(3-Cl-4-CF3)]L[NMeAib]L[NMedβ3hAla][NMeA]I[Sar])) | 0.0058
12 | CC[C@H](C)[C@@H]1NC(=O)[C@H](C)N(C)C(=O)C[C@@H](C)N(C)C(=O)[C@H](CC(C)C)NC(=O)C(C)(C)N(C)C(=O)[C@H](CC(C)C)NC(=O)[C@H](CCc2ccc(C(F)(F)F)c(Cl)c2)NC(=O)[C@@H](C)N(C)C(=O)[C@H](CC2CCCCC2)N(C)C(=O)[C@@H]2CCN2C(=O)CN(C)C1=O [Compound 1378] (cyclo([Aze][NMeCha][dNMeA][hPhe(3-Cl-4-CF3)]L[NMeAib]L[NMedβ3hAla][NMeA]I[Sar])) | 0.38
13 | CC[C@H](C)[C@@H]1NC(=O)[C@H](CC(C)C)N(C)C(=O)C[C@@H](C)N(C)C(=O)[C@H](CC(C)C)NC(=O)C(C)(C)N(C)C(=O)[C@H](CC(C)C)NC(=O)[C@H](CCc2ccc(C(F)(F)F)c(Cl)c2)NC(=O)CN(C)C(=O)[C@H](Cc2ccc(C)cc2)N(C)C(=O)[C@@H]2CCN2C(=O)[C@H](C)N(C)C1=O [Compound 1379] (cyclo([Aze][NMePhe(4-Me)][Sar][hPhe(3-Cl-4-CF3)]L[NMeAib]L[NMedβ3hAla][NMeL]I[NMeA])) | 0.064
14 | CC[C@H](C)[C@@H]1NC(=O)[C@H](C)N(C)C(=O)C[C@@H](C)N(C)C(=O)[C@H](CC(C)C)NC(=O)C(C)(C)N(C)C(=O)[C@H](CC(C)C)NC(=O)[C@H](CCc2ccc(C(F)(F)F)c(Cl)c2)NC(=O)[C@@H](C)N(C)C(=O)[C@H](Cc2ccc(C)cc2)N(C)C(=O)[C@@H]2CCN2C(=O)CN(C)C1=O [Compound 1382] (cyclo([Aze][NMePhe(4-Me)][dNMeA][hPhe(3-Cl-4-CF3)]L[NMeAib]L[NMedβ3hAla][NMeA]I[Sar])) | 0.23
15 | CC[C@H](C)[C@@H]1NC(=O)[C@H](C)N(C)C(=O)C[C@@H](C)N(C)C(=O)[C@H](CC(C)C)NC(=O)C(C)(C)N(C)C(=O)[C@H](CC(C)C)NC(=O)[C@H](CCc2ccc(C(F)(F)F)c(Cl)c2)NC(=O)[C@@H](C)N(C)C(=O)[C@H](Cc2ccc(C(F)(F)F)cc2)N(C)C(=O)[C@@H]2CCN2C(=O)CN(C)C1=O [Compound 1383] (cyclo([Aze][NMePhe(4-CF3)][dNMeA][hPhe(3-Cl-4-CF3)]L[NMeAib]L[NMedβ3hAla][NMeA]I[Sar])) | 0.13
16 | CC[C@H](C)[C@@H]1NC(=O)[C@H](CC(C)C)N(C)C(=O)C[C@@H](C)N(C)C(=O)[C@H](CC(C)C)NC(=O)C(C)(C)N(C)C(=O)[C@H](CC(C)C)NC(=O)[C@H](CCc2ccc(C(F)(F)F)c(Cl)c2)NC(=O)CN(C)C(=O)[C@H](Cc2ccc(C)cc2)N(C)C(=O)[C@@H]2CCN2C(=O)CN(C)C1=O [Compound 1386] (cyclo([Aze][NMePhe(4-Me)][Sar][hPhe(3-Cl-4-CF3)]L[NMeAib]L[NMedβ3hAla][NMeL]I[Sar])) | 0.01
17 | CC[C@H](C)[C@@H]1NC(=O)[C@H](C)N(C)C(=O)C[C@@H](C)N(C)C(=O)[C@H](CC(C)C)NC(=O)C(C)(C)N(C)C(=O)[C@H](CC(C)C)NC(=O)[C@H](CCc2ccc(C(F)(F)F)c(Cl)c2)NC(=O)CN(C)C(=O)[C@H](CC2CCCCC2)N(C)C(=O)[C@@H]2CCN2C(=O)CN(C)C1=O [Compound 1387] (cyclo([Aze][NMeCha][Sar][hPhe(3-Cl-4-CF3)]L[NMeAib]L[NMedβ3hAla][NMeA]I[Sar])) | 0.014
18 | CC[C@H](C)[C@@H]1NC(=O)[C@H](C)N(C)C(=O)C[C@@H](C)N(C)C(=O)[C@H](CC(C)C)NC(=O)C(C)(C)N(C)C(=O)[C@H](CC(C)C)NC(=O)[C@H](CCc2ccc(C(F)(F)F)c(Cl)c2)NC(=O)CN(C)C(=O)[C@H](CC2CCCCC2)N(C)C(=O)[C@@H]2CCN2C(=O)[C@H](C)N(C)C1=O [Compound 1391] (cyclo([Aze][NMeCha][Sar][hPhe(3-Cl-4-CF3)]L[NMeAib]L[NMedβ3hAla][NMeA]I[NMeA])) | 0.065
